Like-named read-outs stand apart in the source and are kept apart here.
Assays:
Type in all cases: cell-based
ERα = target: T1, ERα (Homo sapiens, UniProt P03372); experiment: ER degradation in MCF-7 cells (Western blot); conditions: for DC50: ER degradation, 24 hours
T1 construct: endogenous in cells; host or cells: MCF-7
T1 sequence (P03372 1-595): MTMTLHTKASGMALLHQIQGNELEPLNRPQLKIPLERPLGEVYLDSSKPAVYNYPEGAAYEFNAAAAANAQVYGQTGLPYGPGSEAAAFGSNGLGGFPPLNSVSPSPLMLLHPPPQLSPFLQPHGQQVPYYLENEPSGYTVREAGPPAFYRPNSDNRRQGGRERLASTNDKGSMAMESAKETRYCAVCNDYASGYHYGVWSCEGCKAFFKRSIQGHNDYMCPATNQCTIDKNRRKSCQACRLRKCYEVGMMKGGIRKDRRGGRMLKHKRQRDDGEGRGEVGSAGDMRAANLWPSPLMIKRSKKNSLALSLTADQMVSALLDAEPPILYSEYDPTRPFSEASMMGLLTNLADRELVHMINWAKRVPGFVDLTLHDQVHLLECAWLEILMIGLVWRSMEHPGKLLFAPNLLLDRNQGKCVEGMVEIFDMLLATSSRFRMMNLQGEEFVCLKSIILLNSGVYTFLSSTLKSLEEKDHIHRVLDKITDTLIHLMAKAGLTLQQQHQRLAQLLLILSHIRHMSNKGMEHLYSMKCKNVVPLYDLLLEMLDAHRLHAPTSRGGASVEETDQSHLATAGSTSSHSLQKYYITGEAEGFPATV
How it was run: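 MCF-7 cells treated with a range of compound concentrations for 24 hours, then lysed; 50 μg protein probed for ERα by Western blot with infrared imaging. DC50 is concentration giving 50% ER reduction; Dmax is the highest percentage reduction over the range tested.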

ER = target: T2, ER (Homo sapiens, UniProt P03372); experiment: ER antagonism (T47D ERE luciferase), T47d-kb-Luc cells; conditions: read-out: IC50 (ER antagonistm)
T2 construct: endogenous in cells; host or cells: T47d-kb-Luc (T47D stably transfected with a luciferase reporter gene only)
T2 sequence (P03372 1-595): T1 sequence (P03372 1-595)
How it was run: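 Stably transfected T47d-kb-Luc human breast cancer cells were used, and antagonism was measured as inhibition of estradiol-driven activity. Data were normalised to the estradiol control. Five concentrations were tested in quadruplicate across at least three experiments.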

[1] = test system: MCF-7 breast cancer cells; experiment: MCF-7 proliferation / cell viability assay; conditions: MCF-7 proliferation with 0.1 nM 17-beta estradiol, read-out: IC50 (anti-proliferation)
How it was run: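 MCF-7 cells in 5% FBS DMEM were exposed for 5 days to compound at 6 doses from 10^−10 M to 10^−5 M, with DMSO as vehicle. Viable cells were counted by Coulter counter. Survival ratio = treated/vehicle viable cell number, vehicle set to 100%.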

[2] = MCF7, Maximal ER degradation, read-out: Dmax

Row | DC50 (ERα) | Dmax (ERα; [2]) | IC50 (ER) | IC50 ([1]; Homo sapiens, MCF7) | Compound | Dmax (ERα; Maximal ER degradation) | IC50 [1]
1 | < 10 nM | > 90% | < 10 nM | < 10 nM | CC/C(=C(\c1ccc(OCCN2CCN(C(=O)N3CCN(c4ccc5c(c4)CN([C@@H]4CCC(=O)NC4=O)C5=O)CC3)CC2)cc1)c1ccc(B(O)O)cc1)c1ccccc1 [Compound 88] |  | 
2 | < 10 nM | > 90% | < 10 nM | < 10 nM | CC/C(=C(/c1ccc(O)cc1)c1ccc(OCCN2CCN(C(=O)N3CCC(CN4CCN(c5ccc6c(c5)CN(C5CCC(=O)NC5=O)C6=O)CC4)CC3)CC2)cc1)c1ccccc1 (stereo not shown) [Compound 90, (E)-3-(5-(4-((1-(4-(2-(4-(1-(4-hydroxyphenyl)-2-phenylbut-1-en-1-yl)phenoxy)ethyl)piperazine-1-carbonyl)piperidin-4-yl)methyl)piperazin-1-yl)-1-oxoisoindolin-2-yl)piperidine-2,6-dione] |  | 
3 | < 10 nM | > 90% | < 10 nM | < 10 nM | CC/C(=C(/c1ccc(OCCN2CCN(C(=O)N3CCC(CN4CCN(c5ccc6c(c5)CN(C5CCC(=O)NC5=O)C6=O)CC4)CC3)CC2)cc1)c1ccc(B(O)O)cc1)c1ccccc1 (stereo not shown) [Compound 91, (Z)-(4-(1-(4-(2-(4-(4-((4-(2-(2,6-dioxopiperidin-3-yl)-1-oxoisoindolin-5-yl)piperazin-1-yl)methyl)piperidine-1-carbonyl)piperazin-1-yl)ethoxy)phenyl)-2-phenylbut-1-en-1-yl)phenyl)boronic acid] |  | 
4 | < 10 nM | > 90% | < 10 nM | < 10 nM | CC/C(=C(\c1ccc(OCCN2CCN(C(=O)N3CCC(CN4CCN(c5ccc6c(c5)CN(C5CCC(=O)NC5=O)C6=O)CC4)CC3)CC2)cc1)c1ccc(B(O)O)cc1)c1ccccc1 (stereo not shown) [Compound 92, (E)-(4-(1-(4-(2-(4-(4-((4-(2-(2,6-dioxopiperidin-3-yl)-1-oxoisoindolin-5-yl)piperazin-1-yl)methyl)piperidine-1-carbonyl)piperazin-1-yl)ethoxy)phenyl)-2-phenylbut-1-en-1-yl)phenyl)boronic acid] |  | 
5 | 10 to 50 nM | > 90% | < 10 nM | < 10 nM | CC/C(=C(\c1ccc(O)cc1)c1ccc(OCCN2CCN(C(=O)N3CCC(N4CCN(c5ccc6c(c5)CN(C5CCC(=O)NC5=O)C6=O)CC4)CC3)CC2)cc1)c1ccccc1 (stereo not shown) [Compound 93, (Z)-3-(5-(4-(1-(4-(2-(4-(1-(4-hydroxyphenyl)-2-phenylbut-1-en-1-yl)phenoxy)ethyl)piperazine-1-carbonyl)piperidin-4-yl)piperazin-1-yl)-1-oxoisoindolin-2-yl)piperidine-2,6-dione] |  | 
6 | 10 to 50 nM | > 90% | < 10 nM | < 10 nM | CC/C(=C(/c1ccc(O)cc1)c1ccc(OCCN2CCN(C(=O)N3CCC(N4CCN(c5ccc6c(c5)CN(C5CCC(=O)NC5=O)C6=O)CC4)CC3)CC2)cc1)c1ccccc1 (stereo not shown) [Compound 94, (E)-3-(5-(4-(1-(4-(2-(4-(1-(4-hydroxyphenyl)-2-phenylbut-1-en-1-yl)phenoxy)ethyl)piperazine-1-carbonyl)piperidin-4-yl)piperazin-1-yl)-1-oxoisoindolin-2-yl)piperidine-2,6-dione] |  | 
7 | 10 to 50 nM | > 90% | < 10 nM | < 10 nM | CC/C(=C(/c1ccc(OCCN2CCN(C(=O)N3CCC(N4CCN(c5ccc6c(c5)CN(C5CCC(=O)NC5=O)C6=O)CC4)CC3)CC2)cc1)c1ccc(B(O)O)cc1)c1ccccc1 (stereo not shown) [Compound 95] |  | 
8 | 10 to 50 nM | > 90% | < 10 nM | < 10 nM | CC/C(=C(\c1ccc(OCCN2CCN(C(=O)N3CCC(N4CCN(c5ccc6c(c5)CN(C5CCC(=O)NC5=O)C6=O)CC4)CC3)CC2)cc1)c1ccc(B(O)O)cc1)c1ccccc1 (stereo not shown) [Compound 96, (E)-(4-(1-(4-(2-(4-(4-(4-(2-(2,6-dioxopiperidin-3-yl)-1-oxoisoindolin-5-yl)piperazin-1-yl)piperidine-1-carbonyl)piperazin-1-yl)ethoxyl)phenyl)-2-phenylbut-1-en-1-yl)phenyl)boronic acid] |  | 
9 | 10 to 50 nM | > 90% | < 10 nM | 10 to 50 nM | CC/C(=C(\c1ccc(O)cc1)c1ccc(N2CCN(C(=O)N3CCN(c4ccc5c(c4)CN(C4CCC(=O)NC4=O)C5=O)CC3)CC2)cc1)c1ccccc1 (stereo not shown) [Compound 97, (E)-3-(5-(4-(4-(4-(1-(4-hydroxyphenyl)-2-phenylbut-1-en-1-yl)phenyl)piperazine-1-carbonyl)piperazin-1-yl)-1-oxoisoindolin-2-yl)piperidine-2,6-dione] |  | 
10 | 10 to 50 nM | > 90% | < 10 nM | 10 to 50 nM | CC/C(=C(\c1ccc(O)cc1)c1ccc(N2CCN(C(=O)N3CCN(c4ccc5c(c4)CN([C@@H]4CCC(=O)NC4=O)C5=O)CC3)CC2)cc1)c1ccccc1 [Compound 99, (R,E)-3-(5-(4-(4-(4-(1-(4-hydroxyphenyl)-2-phenylbut-1-en-1-yl)phenyl)piperazine-1-carbonyl)piperazin-1-yl)-1-oxoisoindolin-2-yl)piperidine-2,6-dione] |  | 
11 | < 10 nM | > 90% | < 10 nM | 10 to 50 nM | CC/C(=C(/c1ccc(O)cc1)c1ccc(N2CCN(C(=O)N3CCN(c4ccc5c(c4)CN(C4CCC(=O)NC4=O)C5=O)CC3)CC2)cc1)c1ccccc1 (stereo not shown) [Compound 100] |  | 
12 | < 10 nM | > 90% | < 10 nM | 10 to 50 nM | CC/C(=C(/c1ccc(O)cc1)c1ccc(N2CCN(C(=O)N3CCN(c4ccc5c(c4)CN([C@H]4CCC(=O)NC4=O)C5=O)CC3)CC2)cc1)c1ccccc1 [Compound 101, (S,Z)-3-(5-(4-(4-(4-(1-(4-hydroxyphenyl)-2-phenylbut-1-en-1-yl)phenyl)piperazine-1-carbonyl)piperazin-1-yl)-1-oxoisoindolin-2-yl)piperidine-2,6-dione] |  | 
13 | < 10 nM | > 90% | < 10 nM | 10 to 50 nM | CC/C(=C(/c1ccc(O)cc1)c1ccc(N2CCN(C(=O)N3CCN(c4ccc5c(c4)CN([C@@H]4CCC(=O)NC4=O)C5=O)CC3)CC2)cc1)c1ccccc1 [Compound 102, (R,Z)-3-(5-(4-(4-(4-(1-(4-hydroxyphenyl)-2-phenylbut-1-en-1-yl)phenyl)piperazine-1-carbonyl)piperazin-1-yl)-1-oxoisoindolin-2-yl)piperidine-2,6-dione] |  | 
14 | < 10 nM | > 90% | < 10 nM | < 10 nM | CC/C(=C(\c1ccc(B(O)O)cc1)c1ccc(N2CCN(C(=O)N3CCN(c4ccc5c(c4)CN(C4CCC(=O)NC4=O)C5=O)CC3)CC2)cc1)c1ccccc1 (stereo not shown) [Compound 103, (Z)-(4-(1-(4-(4-(4-(2-(2,6-dioxopiperidin-3-yl)-1-oxoisoindolin-5-yl)piperazine-1-carbonyl)piperazin-1-yl)phenyl)-2-phenylbut-1-en-1-yl)phenyl)boronic acid] |  | 
15 | < 10 nM | > 90% | < 10 nM | < 10 nM | CC/C(=C(\c1ccc(B(O)O)cc1)c1ccc(N2CCN(C(=O)N3CCN(c4ccc5c(c4)CN([C@H]4CCC(=O)NC4=O)C5=O)CC3)CC2)cc1)c1ccccc1 [Compound 104, (S,Z)-(4-(1-(4-(4-(4-(2-(2,6-dioxopiperidin-3-yl)-1-oxoisoindolin-5-yl)piperazine-1-carbonyl)piperazin-1-yl)phenyl)-2-phenylbut-1-en-1-yl)phenyl)boronic acid] |  | 
16 | < 10 nM | > 90% | < 10 nM | < 10 nM | CC/C(=C(\c1ccc(B(O)O)cc1)c1ccc(N2CCN(C(=O)N3CCN(c4ccc5c(c4)CN([C@@H]4CCC(=O)NC4=O)C5=O)CC3)CC2)cc1)c1ccccc1 [Compound 105] |  | 
17 | < 10 nM | > 90% | < 10 nM | < 10 nM | CC/C(=C(/c1ccc(B(O)O)cc1)c1ccc(N2CCN(C(=O)N3CCN(c4ccc5c(c4)CN(C4CCC(=O)NC4=O)C5=O)CC3)CC2)cc1)c1ccccc1 (stereo not shown) [Compound 106] |  | 

Row | Compound | DC50 (ERα) | Dmax (ERα; [2]) | IC50 (ER) | IC50 ([1]; Homo sapiens, MCF7) | Dmax (ERα; Maximal ER degradation) | IC50 [1]
18 | CC/C(=C(\c1ccc(O)cc1)c1ccc(OCCN2CCN(C(=O)N3CCC(CN4CCN(c5ccc6c(c5)CN(C5CCC(=O)NC5=O)C6=O)CC4)CC3)CC2)cc1)c1ccccc1 (stereo not shown) [Compound 89] | < 10 nM |  | < 10 nM |  | A (A -> 90%) | < 10 nM
19 | CC/C(=C(\c1ccc(O)cc1)c1ccc(N2CCN(C(=O)N3CCN(c4ccc5c(c4)CN([C@H]4CCC(=O)NC4=O)C5=O)CC3)CC2)cc1)c1ccccc1 [Compound 98] | 10 to 50 nM |  | < 10 nM |  | A (A -> 90%) | 10 to 50 nM
